Values quoted from earlier work as cited in patent publication US20020010550A1, “PHARMACOKINETIC-BASED DRUG DESIGN TOOL AND METHOD” (priority 1998, published 2002).
Like-named read-outs stand apart in the source and are kept apart here.

Columns and labels:
[1] = tested on: rabbit intestinal tissue (duodenum, jejunum, ileum, colon); conditions: donor concentration given with each compound
intestinal transport = conditions: permeability standards
[2] = Plasma Kinetics
[3] = human

O=C[C@H](O)[C@@H](O)[C@H](O)[C@H](O)CO [D-glucose]
Pe ([1]; Colon): 9.28 ×10⁻⁶ cm/s
Pe ([1]; Duodenum): 4.55 ×10⁻⁶ cm/s
Pe ([1]; Ileum): 14.5 ×10⁻⁶ cm/s
Pe ([1]; Jejunum): 10.2 ×10⁻⁶ cm/s
Transport mechanism (intestinal transport): Carrier-mediated Influx

Nc1nc2c(ncn2COC(CO)CO)c(=O)[nH]1.[Na] [Gancyclovir, 9-(1,3-dihydroxy-2-propoxymethyl)guanine, monosodium salt]
Fluid Volume [2]: 76,800 ml
k12 [2]: 0.839
k21 [2]: 0.670
kelim [2]: 0.161
bioavailability of fasted patients in clinical trials ([3]; fasted, oral): 3-20%
absorption ([3]; in vivo): poorly absorbed
in vivo biotransformation ([3]; in vivo): no in vivo biotransformation

C[C@]12CCC(=O)C=C1CC[C@@H]1[C@@H]2[C@@H](O)C[C@@]2(C)[C@H]1CC[C@]2(O)C(=O)CO [hydrocortisone]
Pe ([1]; Colon): 3.85 ×10⁻⁶ cm/s
Pe ([1]; Duodenum): 0.3 ×10⁻⁶ cm/s
Pe ([1]; Ileum): 2.91 ×10⁻⁶ cm/s
Pe ([1]; Jejunum): 1.31 ×10⁻⁶ cm/s

OC[C@@H](O)[C@@H](O)[C@H](O)[C@H](O)CO [mannitol]
Pe ([1]; Colon): 5.53 ×10⁻⁶ cm/s
Pe ([1]; Duodenum): 1.73 ×10⁻⁶ cm/s
Pe ([1]; Ileum): 4.02 ×10⁻⁶ cm/s
Pe ([1]; Jejunum): 3.54 ×10⁻⁶ cm/s
Transport mechanism (intestinal transport): Passive Paracellular
